Measured values as given in patent publication US12215332B2, “Method of increasing resistance against soybean rust in transgenic plants by increasing the scoparone” (BASF PLANT SCIENCE COMPANY GMBH, priority 2018, dated 2025).
Entries after “also recorded” stand apart in the source; their conditions may differ.

Legend:
[1] = tested on: Phakopsora pachyrhizi uredospores; test: In vitro growth inhibition of Phakopsora pachyrhizi: appressoria formation on glass slides; assay type: cell-based
Protocol: FIG. 2 depicts the inhibition of P. pachyrhitzi appressoria formation by scoparone in a concentration-dependent manner. P. pachyrhizi uredospores were resuspended in H2O supplemented with Tween-20 and 10 μM, 25 μM, 50 μM, 100 μM, 200 μM and 400 μM scoparone (solved in 0.1% DMSO) and incubated on glass slides in high humidity conditions. Treatment with 0.1% DMSO and H2O served as controls. The appressoria formation rate was determined by quantitative microscopic analysis. Only spores showing germtube formation with a visible thickening of the germ tube tip were counted as appressoria formation.
Uredospores of P. pachyrhizi (isolate BRO5) were harvested from heavily infected soybean leaves and equally suspended in water by shaking for 25 s at 5′000 rpm on a Precellys 24 homogenizer in the absence of homogenizing beads (Bertin instruments). […] Germination of spores and fungal development was evaluated by counting developing appressoria in the presence of 10-400 μM scoparone (in 0.1% DMSO) and compared to fungal proliferation in presence of H2O or 0.1% DMSO only (controls).
The germination rate and appressoria formation rate was determined by quantitative microscopic analysis. Spores showing a visible germ tube formation but no thickening of the germ tube tip were counted as “germinated”, whereas the presence of a thickened germ tube tip indicated the formation of an appressoria. […]

[2] = ABTS assay of coumarins' antioxidant activity; assay type: physicochemical; settings: absorbance at 734 nm, 7 minutes at 37° C., compared to scopoletin, scopolin, umbelliferone, ascorbic acid and Trolox
Protocol: Antioxidant activity of scoparone was determined in an 2,2′-azinobis-(3-ethylbenzothiazoline-6-sulfonic acid) (ABTS)-assay and compared to authentic analytical standards of scopoletin, scopolin, umbelliferone, ascorbic acid and Trolox (6-hydroxy-2,5,7,8-tetramethylchroman-2-carboxylic acid).
The 2,2′-azinobis-(3-ethylbenzothiazoline-6-sulfonic acid (ABTS)-assay10 was applied to compare the antioxidant activity of different coumarins to Trolox and ascorbic acid as references. The radical monocation of ABTS (ABTS·+) was generated by oxidation of ABTS with potassium persulfate (K2S2O8) This was done by mixing aqueous ABTS (7 mM) and K2S2O8 (2.4 mM) in a 1:1 ratio (v/v). The mixture was placed in the dark and incubated at room temperature for 16 hours and then diluted with ethanol to an absorbance of 0.7 (±0.02) at 734 nm. All solutions were brought to a temperature of 37° C. Next, 990 μl of ABTS·+ was mixed with 10 μl of a test solution containing different concentrations of a coumarin standard. Ascorbic acid and Trolox served as positive and ethanol as the blanc control. Mixtures were incubated at 37° C. in a thermomixer (700 rpm) for 7 minutes. Absorbance at 734 nm was measured in a spectrophotometer following incubation for 7 minutes at 37° C. in a thermomixer (700 rpm).

Structure (SMILES): COc1cc2ccc(=O)oc2cc1OC [scoparone, 6,7-dimethoxycoumarin]
- formation of appressoria in-vitro ([1]; 400 μM scoparone): completely abolishes the formation of appressoria
- appressoria formation rate ([1]; 10, 25, 50, 100, 200 and 400 μM scoparone in 0.1% DMSO, spores in H2O with Tween-20 on glass slides, controls 0.1% DMSO and H2O): inhibiting appressoria formation in a dose dependent manner; also recorded: decreases the formation of appressoria in a dose dependent manner
- antioxidant activity [2]: lacks antioxidant activity
